Laboratory results published in paper PMC12560751 (RSC Advances, 2025).

Tests used:
Format in all cases: biochemical
recombinant hMAO B = biological target: T1, recombinant hMAO B (Homo sapiens, UniProt P27338); assay: MAO B inhibition, fluorometric method; settings: for IC50: MAO B IC50, tables; for inhibition at 100 µM / inhibition at 1000 µM: read-out: MAO B % inhibition; for Selectivity and indexes: selective for MAO-B (over MAO A)
T1 sequence (P27338 1-520): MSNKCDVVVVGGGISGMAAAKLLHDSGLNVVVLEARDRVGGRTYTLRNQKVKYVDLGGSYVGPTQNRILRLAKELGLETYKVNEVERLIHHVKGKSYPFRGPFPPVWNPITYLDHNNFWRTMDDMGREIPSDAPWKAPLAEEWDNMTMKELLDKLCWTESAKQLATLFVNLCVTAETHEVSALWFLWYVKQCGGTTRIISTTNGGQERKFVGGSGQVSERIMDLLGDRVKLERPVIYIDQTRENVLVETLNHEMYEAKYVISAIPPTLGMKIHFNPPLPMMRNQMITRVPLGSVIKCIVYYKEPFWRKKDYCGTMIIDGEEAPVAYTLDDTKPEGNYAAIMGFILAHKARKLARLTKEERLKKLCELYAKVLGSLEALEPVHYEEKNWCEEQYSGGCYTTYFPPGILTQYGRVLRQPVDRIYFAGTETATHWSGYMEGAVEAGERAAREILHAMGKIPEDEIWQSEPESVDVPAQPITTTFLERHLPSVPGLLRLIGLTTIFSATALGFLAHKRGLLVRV

BChE = BChE (Homo sapiens, UniProt P06276); assay: Anticholinesterase activity, modified colorimetric Ellman method; settings: for inhibition at 100 µM / inhibition at 1000 µM: read-out: BChE % inhibition
AChE = AChE (Homo sapiens, UniProt P22303); assay: as above; settings: for inhibition at 100 µM / inhibition at 1000 µM: read-out: AChE % inhibition; for Selectivity and indexes: selective for AChE (over BChE)
hMAO A = biological target: T2, hMAO A (Homo sapiens, UniProt P21397); assay: MAO A inhibition, fluorometric method; settings: for inhibition at 100 µM / inhibition at 1000 µM: read-out: MAO A % inhibition; for Selectivity and indexes: selective for MAO-A (over MAO B)
T2 sequence (P21397 1-527): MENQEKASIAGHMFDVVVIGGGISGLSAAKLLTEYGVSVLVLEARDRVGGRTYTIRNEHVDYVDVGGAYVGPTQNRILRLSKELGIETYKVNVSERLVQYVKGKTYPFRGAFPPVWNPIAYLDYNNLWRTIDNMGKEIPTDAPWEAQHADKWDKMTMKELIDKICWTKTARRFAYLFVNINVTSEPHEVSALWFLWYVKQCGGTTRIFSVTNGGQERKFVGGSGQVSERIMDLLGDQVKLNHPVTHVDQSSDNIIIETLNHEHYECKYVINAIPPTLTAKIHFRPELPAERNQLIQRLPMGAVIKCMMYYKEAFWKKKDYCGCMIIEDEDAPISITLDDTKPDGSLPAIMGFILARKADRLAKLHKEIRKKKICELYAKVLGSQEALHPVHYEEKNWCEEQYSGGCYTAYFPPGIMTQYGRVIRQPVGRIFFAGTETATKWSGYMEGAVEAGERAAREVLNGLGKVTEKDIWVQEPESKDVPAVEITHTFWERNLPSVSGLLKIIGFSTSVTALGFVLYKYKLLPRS

Sequence of AChE (P22303 32-614): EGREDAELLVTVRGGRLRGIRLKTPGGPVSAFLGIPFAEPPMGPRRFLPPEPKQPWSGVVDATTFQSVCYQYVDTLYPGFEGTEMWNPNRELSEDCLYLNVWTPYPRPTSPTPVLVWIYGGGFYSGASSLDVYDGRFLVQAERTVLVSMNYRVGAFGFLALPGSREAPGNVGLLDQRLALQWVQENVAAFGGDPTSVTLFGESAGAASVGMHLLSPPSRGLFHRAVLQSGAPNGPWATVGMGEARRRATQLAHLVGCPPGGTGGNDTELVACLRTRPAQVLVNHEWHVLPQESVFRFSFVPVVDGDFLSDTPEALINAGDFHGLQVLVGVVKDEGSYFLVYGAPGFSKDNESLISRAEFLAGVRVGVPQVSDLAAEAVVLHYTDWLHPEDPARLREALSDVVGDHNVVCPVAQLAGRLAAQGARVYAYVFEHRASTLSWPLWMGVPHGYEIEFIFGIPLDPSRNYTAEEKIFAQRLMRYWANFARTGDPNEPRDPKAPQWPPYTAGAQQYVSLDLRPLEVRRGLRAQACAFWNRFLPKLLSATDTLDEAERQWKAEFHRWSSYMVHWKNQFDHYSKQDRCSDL
Sequence of BChE (P06276 29-602, species assumed): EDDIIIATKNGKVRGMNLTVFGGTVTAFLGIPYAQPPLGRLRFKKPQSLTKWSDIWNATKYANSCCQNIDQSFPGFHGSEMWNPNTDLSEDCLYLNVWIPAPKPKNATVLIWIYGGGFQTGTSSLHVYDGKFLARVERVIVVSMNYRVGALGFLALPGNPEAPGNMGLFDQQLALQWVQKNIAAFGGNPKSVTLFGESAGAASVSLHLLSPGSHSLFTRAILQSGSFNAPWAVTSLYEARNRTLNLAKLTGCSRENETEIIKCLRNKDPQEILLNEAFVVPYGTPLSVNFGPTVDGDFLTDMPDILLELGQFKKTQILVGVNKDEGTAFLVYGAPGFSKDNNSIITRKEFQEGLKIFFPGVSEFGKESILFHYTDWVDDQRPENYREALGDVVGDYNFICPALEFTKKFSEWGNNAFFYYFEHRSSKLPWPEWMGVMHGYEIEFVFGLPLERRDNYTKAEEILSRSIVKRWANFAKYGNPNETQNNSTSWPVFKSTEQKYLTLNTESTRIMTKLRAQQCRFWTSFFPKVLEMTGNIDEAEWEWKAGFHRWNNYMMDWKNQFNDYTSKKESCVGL

| Structure (SMILES) | IC50 (recombinant hMAO B) [µM] | inhibition at 100 µM (recombinant hMAO B) [%] | inhibition at 1000 µM (recombinant hMAO B) [%] | IC50 (BChE) [µM] | inhibition at 100 µM (BChE) [%] | inhibition at 1000 µM (BChE) [%] | IC50 (AChE) [µM] | inhibition at 100 µM (AChE) [%] | inhibition at 1000 µM (AChE) [%] | IC50 (hMAO A) [µM] | inhibition at 100 µM (hMAO A) [%] | inhibition at 1000 µM (hMAO A) [%] | Selectivity and indexes (hMAO A) | Selectivity and indexes (recombinant hMAO B) | Selectivity and indexes (AChE) |
| --- | --- | --- | --- | --- | --- | --- | --- | --- | --- | --- | --- | --- | --- | --- | --- |
| C=CCN1CCN(CC(=O)Nc2ccc(C=CC(=O)c3ccc(OC)c(OC)c3)cc2)CC1 [Compound 4d, 2-(4-Allylpiperazin-1-yl)-N-(4-(3-(3,4-dimethoxyphenyl)-3-oxoprop-1-en-1-yl)phenyl)acetamide] | > 1000 | 30.1 ± 0.957 | 36.7 ± 1.04 | > 1000 | 20.1 ± 0.964 | 40.3 ± 1.21 | > 100 | 40 ± 1.02 | 80.7 ± 3.34 | > 100 | 41.4 ± 1.96 | 55 ± 2.06 | MAO-A/>10 | – | – |
| C#CCN1CCN(CC(=O)Nc2ccc(C=CC(=O)c3ccc(OC)c(OC)c3)cc2)CC1 [Compound 4e, N-(4-(3-(3,4-Dimethoxyphenyl)-3-oxoprop-1-en-1-yl)phenyl)-2-(4-(prop-2-yn-1-yl)piperazin-1-yl)acetamide] | > 100 | 39.3 ± 1.48 | 78.2 ± 2.48 | > 1000 | 21.9 ± 0.835 | 38 ± 0.964 | > 100 | 39.4 ± 1.32 | 67.2 ± 2.11 | > 100 | 44.2 ± 1.87 | 61.4 ± 1.95 | – | – | – |
| COc1ccc(C(=O)C=Cc2ccc(NC(=O)CN3CCN(CCCO)CC3)cc2)cc1OC [Compound 4i, N-(4-(3-(3,4-Dimethoxyphenyl)-3-oxoprop-1-en-1-yl)phenyl)-2-(4-(3-hydroxypropyl)piperazin-1-yl)acetamide] | > 100 | 47.4 ± 1.62 | 74.1 ± 2.42 | > 1000 | 23.6 ± 1.07 | 39.6 ± 1.34 | 0.084 ± 0.003 | 90.5 ± 2.83 | 94.2 ± 2.06 | > 1000 | 29.1 ± 0.962 | 41.1 ± 2.06 | – | MAO-B/>10 | AChE/>1000 |
| COc1ccc(C(=O)C=Cc2ccc(NC(=O)CN3CCN(CCCN(C)C)CC3)cc2)cc1OC [Compound 4k, N-(4-(3-(3,4-Dimethoxyphenyl)-3-oxoprop-1-en-1-yl)phenyl)-2-(4-(3-(dimethylamino)propyl)piperazin-1-yl)acetamide] | > 1000 | 36.1 ± 0.964 | 48.7 ± 1.84 | > 1000 | 29 ± 1.04 | 46 ± 1.87 | 0.039 ± 0.001 | 94.1 ± 2.96 | 97.4 ± 2.81 | > 100 | 41.3 ± 1.94 | 63 ± 2.86 | MAO-A/>10 | – | AChE/>1000 |
| CCN1CCN(CC(=O)Nc2ccc(C=CC(=O)c3ccc(OC)c(OC)c3)cc2)CC1 [Compound 4b, N-(4-(3-(3,4-Dimethoxyphenyl)-3-oxoprop-1-en-1-yl)phenyl)-2-(4-ethylpiperazin-1-yl)acetamide] | > 100 | 40.1 ± 1.97 | 60.4 ± 2.27 | > 1000 | 27 ± 0.877 | 31.1 ± 1.03 | 0.093 ± 0.003 | 88.7 ± 2.23 | 92.6 ± 2.45 | > 100 | 31.2 ± 1.24 | 53.1 ± 2.17 | – | – | AChE/>1000 |
| COc1ccc(C(=O)C=Cc2ccc(NC(=O)CN3CCN(CCN(C)C)CC3)cc2)cc1OC [Compound 4j, N-(4-(3-(3,4-Dimethoxyphenyl)-3-oxoprop-1-en-1-yl)phenyl)-2-(4-(2-(dimethylamino)ethyl)piperazin-1-yl)acetamide] | > 100 | 40.1 ± 1.06 | 82.2 ± 3.03 | > 1000 | 28.4 ± 1.16 | 42.7 ± 2.06 | 0.043 ± 0.002 | 92.2 ± 3.48 | 94 ± 1.94 | > 1000 | 32.3 ± 1.14 | 47.7 ± 1.94 | – | MAO-B/>10 | AChE/>1000 |
